ChEMBL document CHEMBL1667788, “Novel dammarane-type sapogenins from Panax ginseng berry and their biological activities” (Bioorg Med Chem Lett, 2011)

How the values were obtained:
Assay type in all cases: functional, cell-based
[1] = tested on: HepG2; assay: Cytotoxicity against human HepG2 cells after 72 hrs by MTT assay; conditions: HepG2, 72 h
[2] = tested on: HL-60; assay: Cytotoxicity against human HL60 cells after 72 hrs by MTT assay; conditions: HL-60, 72 h
[3] = tested on: COLO 205; assay: Cytotoxicity against human COLO205 cells after 72 hrs by MTT assay; conditions: COLO 205, 72 h
[4] = tested on: MCF7; assay: Cytotoxicity against human MCF7 cells after 72 hrs by MTT assay; conditions: MCF7, 72 h
[5] = tested on: A549; assay: Cytotoxicity against human A549 cells after 72 hrs by MTT assay; conditions: A549, 72 h
[6] = tested on: DU-145; assay: Cytotoxicity against human DU145 cells after 72 hrs by MTT assay; conditions: DU-145, 72 h

SMILES | IC50 [1] [µM] | IC50 [2] [µM] | IC50 [3] [µM] | IC50 [4] [µM] | IC50 [5] [µM] | IC50 [6] [µM]
CC(C)[C@]12CC[C@](C)(O1)[C@H]1CC[C@]3(C)[C@@H]1[C@@H](C[C@@H]1[C@@]4(C)CC[C@H](O)C(C)(C)[C@@H]4CC[C@]13C)O2 | 64.1 | 42.4 | 70.7 | 49 | – | –
COC(C)(C)CCC[C@@](C)(O)[C@H]1CC[C@]2(C)[C@@H]1[C@H](O)C[C@@H]1[C@@]3(C)CC[C@H](O)C(C)(C)[C@@H]3CC[C@]12C | 8.32 | 8.48 | 14.2 | 8.34 | 35.6 | 11.8
CC(C)(O)CCC[C@@](C)(O)[C@H]1CC[C@]2(C)[C@@H]1[C@H](O)C[C@@H]1[C@@]3(C)CC[C@H](O)C(C)(C)[C@@H]3CC[C@]12C | 45.8 | 8.03 | 18.9 | 34.2 | 29.9 | –
CC(C)=CCCC(C)(O)[C@H]1CC[C@]2(C)[C@@H]1[C@H](O)C[C@@H]1[C@@]3(C)CC[C@H](O)C(C)(C)[C@@H]3CC[C@]12C (single isomer, unassigned) | 39.4 | 27.1 | 49.2 | 6.62 | 99.9 | 60.4
